Measurements reported in ChEMBL document CHEMBL3045266, “Lytic activity of l-menthol derivatives against the snow blight disease fungus, Micronectriella nivalis” (2003).
Calls of active or inactive are those of the source. The calls are words filed in the database; no cut-off is given here.

Columns and labels:
[1] = tested on: Monographella nivalis var. nivalis; experiment: Lytic activity against Monographella nivalis var. nivalis MAFF 305031 assessed as hyphal lysis at 0.2 mg/ml after 48 hr by cotton blue staining; type: functional
[2] = tested on: Monographella nivalis var. nivalis; experiment: Lytic activity against Monographella nivalis var. nivalis MAFF 305031 assessed as hyphal lysis after 48 hr by cotton blue staining; type: functional, organism-based
[3] = tested on: Monographella nivalis var. nivalis; experiment: Lytic activity against Monographella nivalis var. nivalis MAFF 305031 assessed as hyphal lysis at 0.05 mg/ml after 48 hr by cotton blue staining; type: functional
[4] = tested on: Monographella nivalis var. nivalis; experiment: Lytic activity against Monographella nivalis var. nivalis MAFF 305031 assessed as hyphal lysis at 0.025 to 0.2 mg/ml after 48 hr by cotton blue staining; type: functional, organism-based

Question: With `CC(C)[C@@H]1CC[C@@H](C)C[C@H]1O` [LEVOMENTHOL] as the compound, how does the Activity [1] read?
Answer: Its Activity is 45.7%.

Question: Which Activity [2] does the source give for `C[C@H]1C[C@@H](O)[C@H](C(C)(C)O)C[C@@H]1O` here?
Answer: The Activity was “Dose-dependent effect”.

Question: What about the Activity [3] of the same compound?
Answer: The Activity was 68.1%.

Question: What about the Activity [1] of the same compound?
Answer: Its Activity is 81.9%.

Question: Which Activity [1] does the source give for `CC(=O)O[C@@H]1C[C@@](C)(O)CC[C@H]1C(C)C` [(-)-(1S,3R,4S)-1-HYDROXYMENTHYL 3-MONOACETATE] here?
Answer: Its Activity is 66%.

Question: What about the Activity [4] of the same compound?
Answer: The Activity was “Active”.

Question: What does the source list for `CC(C)[C@@H]1CC[C@](C)(O)C[C@H]1O` [(-)-(1S,3R,4S)-1-HYDROXYMENTHOL]?
Answer: Activity [2]: Dose-dependent effect; Activity [1]: 63.9%

Question: How did the Activity [2] turn out when `CC(C)[C@@H]1C[C@H](O)[C@@H](C)C[C@H]1O` [(-)-(1S,3R,4S,6S)-6-HYDROXYMENTHOL] was run?
Answer: Its Activity is “Dose-dependent effect”.

Question: And the Activity [3]?
Answer: The Activity was 57.1%.

Question: What about the Activity [1] of the same compound?
Answer: The Activity was 85%.

Question: For `CC(=O)O[C@H]1C[C@@H](C(C)(C)O)[C@H](OC(C)=O)C[C@@H]1C`, which Activity [1] is on record?
Answer: Its Activity is 95.2%.

Question: What about the Activity [4] of the same compound?
Answer: Its Activity is “Active”.

Question: `CC(=O)O[C@@H]1C[C@H](C)CC[C@H]1C(C)C` was tested. Which Activity [1] did it give?
Answer: The Activity was 51.2%.

Question: What about the Activity [4] of the same compound?
Answer: The Activity was “Active”.

Question: For `CC(=O)O[C@H]1C[C@@H](C(C)C)[C@H](OC(C)=O)C[C@@H]1C`, which Activity [1] is on record?
Answer: The Activity was 91.5%.

Question: And the Activity [4]?
Answer: The Activity was “Active”.
